Test results published in ChEMBL document CHEMBL1759865, “Synthesis, biological assessment and molecular modeling of 14-aryl-10,11,12,14-tetrahydro-9H-benzo[5,6]chromeno[2,3-b]quinolin-13-amines” (Bioorg Med Chem Lett, 2011).
Activity calls are given as the source filed them. The calls are words filed in the database; no cut-off is given here.

Legend:
[1] = Inhibition of […]-induced intracellular Ca2+ uptake in bovine Chromaffin cells at 100 uM; format: functional; settings: Bos taurus
[2] = biological target: T1, Acetylcholinesterase (Electrophorus electricus, UniProt O42275)
T1 sequence (O42275 whole entry): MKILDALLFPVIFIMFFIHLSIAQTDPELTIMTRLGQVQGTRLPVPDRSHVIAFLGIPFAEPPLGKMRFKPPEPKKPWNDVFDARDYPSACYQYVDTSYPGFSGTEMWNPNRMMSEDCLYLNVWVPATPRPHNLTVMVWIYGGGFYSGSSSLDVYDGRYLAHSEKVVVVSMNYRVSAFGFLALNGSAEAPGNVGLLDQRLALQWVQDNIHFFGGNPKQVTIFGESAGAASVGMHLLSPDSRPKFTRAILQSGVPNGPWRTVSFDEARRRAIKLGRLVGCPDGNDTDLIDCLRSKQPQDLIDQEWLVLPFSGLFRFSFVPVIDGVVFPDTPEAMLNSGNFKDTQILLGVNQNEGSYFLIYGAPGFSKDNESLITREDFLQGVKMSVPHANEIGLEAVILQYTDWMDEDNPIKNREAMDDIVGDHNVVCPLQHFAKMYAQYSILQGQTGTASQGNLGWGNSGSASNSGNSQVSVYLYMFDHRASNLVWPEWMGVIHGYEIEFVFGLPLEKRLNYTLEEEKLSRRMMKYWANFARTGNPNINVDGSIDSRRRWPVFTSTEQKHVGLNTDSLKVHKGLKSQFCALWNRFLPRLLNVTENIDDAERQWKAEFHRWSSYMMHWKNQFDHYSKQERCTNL
Description: Inhibition of Electrophorus electricus acetylcholinesterase preincubated with compound for 10 mins using acetylcholine iodide as substrate after 15 mins by spectrophotometric analysis

[3] = species on record: Bos taurus; assay: Inhibition of K(+)-induced intracellular Ca2+ uptake in bovine Chromaffin cells at 100 uM; format: functional, cell-based
[4] = system: SH-SY5Y; assay: Neuroprotective activity in human SH-SY5Y cells by MTT assay; format: functional
[5] = biological target: Cholinesterase (Equus caballus, UniProt P81908)
Chain of Cholinesterase (P81908 whole entry): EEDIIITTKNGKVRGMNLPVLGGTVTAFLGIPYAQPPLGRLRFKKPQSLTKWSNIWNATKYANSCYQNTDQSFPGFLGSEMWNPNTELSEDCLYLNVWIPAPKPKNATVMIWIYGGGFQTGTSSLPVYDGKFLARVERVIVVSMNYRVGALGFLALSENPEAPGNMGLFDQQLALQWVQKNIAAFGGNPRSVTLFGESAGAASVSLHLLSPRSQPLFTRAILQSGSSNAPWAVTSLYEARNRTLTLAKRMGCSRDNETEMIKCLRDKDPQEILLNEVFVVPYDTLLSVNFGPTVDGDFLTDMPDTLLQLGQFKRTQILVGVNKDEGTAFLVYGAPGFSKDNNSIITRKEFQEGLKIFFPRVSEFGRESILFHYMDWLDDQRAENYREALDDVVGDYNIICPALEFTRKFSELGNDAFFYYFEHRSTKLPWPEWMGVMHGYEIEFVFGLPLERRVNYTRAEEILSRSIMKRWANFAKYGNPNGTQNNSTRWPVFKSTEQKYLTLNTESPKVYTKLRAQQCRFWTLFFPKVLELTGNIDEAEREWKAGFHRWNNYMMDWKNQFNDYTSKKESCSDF
Description: Inhibition of horse serum butyrylcholinesterase preincubated with compound for 10 mins using butrylcholine iodide as substrate after 15 mins by spectrophotometric analysis

[6] = biological target: T1, Acetylcholinesterase; assay: Mixed inhibition of Electrophorus electricus acetylcholinesterase using […] substrate by Ellman's method
[7] = biological target: T2, Acetylcholinesterase (Bos taurus) (UniProt P23795); assay: Displacement of propidium iodide from peripheral anionic site of bovine erythrocyte AChE at 0.1 to 3 uM after 20 hrs by fluorescence plate reader
T2 sequence (whole entry): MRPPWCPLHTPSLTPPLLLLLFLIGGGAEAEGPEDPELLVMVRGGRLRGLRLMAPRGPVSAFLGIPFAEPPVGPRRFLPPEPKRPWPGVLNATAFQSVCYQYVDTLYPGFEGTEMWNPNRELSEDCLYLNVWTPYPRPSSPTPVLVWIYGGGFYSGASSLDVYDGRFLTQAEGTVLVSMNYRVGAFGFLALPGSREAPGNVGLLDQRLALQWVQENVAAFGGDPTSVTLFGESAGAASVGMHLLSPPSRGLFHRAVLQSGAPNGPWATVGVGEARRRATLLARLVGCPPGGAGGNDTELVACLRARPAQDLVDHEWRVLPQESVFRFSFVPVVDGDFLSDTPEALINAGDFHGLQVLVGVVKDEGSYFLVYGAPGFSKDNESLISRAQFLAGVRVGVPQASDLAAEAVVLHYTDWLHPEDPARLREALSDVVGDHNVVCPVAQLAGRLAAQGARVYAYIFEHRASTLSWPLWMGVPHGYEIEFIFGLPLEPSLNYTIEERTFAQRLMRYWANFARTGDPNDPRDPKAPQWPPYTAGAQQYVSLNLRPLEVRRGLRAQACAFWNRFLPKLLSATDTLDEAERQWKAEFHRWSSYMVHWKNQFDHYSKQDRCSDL

[8] = biological target: Acetylcholinesterase (Electrophorus electricus) (UniProt O42275); assay: Ratio of compound IC50 to tacrine IC50 for Electrophorus electricus acetylcholinesterase
Chain of Acetylcholinesterase (Electrophorus electricus) (O42275 24-633 limits assumed): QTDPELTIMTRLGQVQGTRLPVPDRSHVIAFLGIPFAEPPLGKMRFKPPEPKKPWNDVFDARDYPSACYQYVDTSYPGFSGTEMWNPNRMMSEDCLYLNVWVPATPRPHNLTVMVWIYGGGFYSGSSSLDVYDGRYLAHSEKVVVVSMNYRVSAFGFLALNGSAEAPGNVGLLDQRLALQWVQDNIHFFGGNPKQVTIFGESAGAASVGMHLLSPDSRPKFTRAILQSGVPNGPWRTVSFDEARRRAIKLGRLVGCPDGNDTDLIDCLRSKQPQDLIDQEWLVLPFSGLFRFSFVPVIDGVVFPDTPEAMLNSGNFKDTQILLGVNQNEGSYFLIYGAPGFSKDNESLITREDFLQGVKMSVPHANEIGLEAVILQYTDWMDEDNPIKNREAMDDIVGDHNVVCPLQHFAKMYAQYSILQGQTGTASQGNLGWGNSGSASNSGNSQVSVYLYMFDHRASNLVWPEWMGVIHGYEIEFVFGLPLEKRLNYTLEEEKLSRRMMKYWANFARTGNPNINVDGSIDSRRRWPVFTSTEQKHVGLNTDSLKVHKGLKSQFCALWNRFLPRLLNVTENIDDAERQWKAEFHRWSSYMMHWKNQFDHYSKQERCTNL

Structure (SMILES)	inhibition at 100 µM [1]	IC50 [2]	Activity [3]	Activity [4]	IC50 [5]	Ki [6]	Activity [7]	Ratio IC50 [8]
CCOC(=O)C1=C(C)Oc2nc3c(c(N)c2C1c1ccc(OC)cc1)CCCC3 (centres undefined)	90%	–	–	–	–	–	–	–
Cc1ccc(C2c3c(nc4c(c3N)CCCC4)Oc3ccc4ccccc4c32)cc1 (racemic)	–	43 nM	inactive	<17%	> 10000 nM	–	–	–
Nc1c2c(nc3c1C(c1ccc(O)cc1)c1c(ccc4ccccc14)O3)CCCC2 (racemic)	–	7 nM	inactive	<17%	> 10000 nM	5 nM	inactive	4
COc1ccc(C2c3c(nc4c(c3N)CCCC4)Oc3ccc4ccccc4c32)cc1 (racemic)	–	18 nM	inactive	<17%	> 10000 nM	–	–	–
COc1cccc(C2c3c(nc4c(c3N)CCCC4)Oc3ccc4ccccc4c32)c1 (racemic)	–	16 nM	inactive	<17%	> 10000 nM	–	–	–
COc1ccccc1C1c2c(nc3c(c2N)CCCC3)Oc2ccc3ccccc3c21 (racemic)	–	20 nM	inactive	<17%	> 10000 nM	–	–	–
COc1cc(C2c3c(nc4c(c3N)CCC4)Oc3ccc4ccccc4c32)ccc1O (racemic)	–	101 nM	inactive	<17%	> 10000 nM	–	–	–
COc1cc(C2c3c(nc4c(c3N)CCCC4)Oc3ccc4ccccc4c32)ccc1O (racemic)	–	28 nM	inactive	<17%	> 10000 nM	–	–	–
COc1ccc(C2c3c(nc4c(c3N)CCCC4)Oc3ccc4ccccc4c32)cc1OC (racemic)	–	26 nM	inactive	<17%	> 10000 nM	–	–	–
COc1cc(C2c3c(nc4c(c3N)CCCC4)Oc3ccc4ccccc4c32)cc(OC)c1OC (racemic)	–	26 nM	inactive	<17%	> 10000 nM	–	–	–
Nc1c2c(nc3c1C(c1ccc([N+](=O)[O-])cc1)c1c(ccc4ccccc14)O3)CCCC2 (racemic)	–	170 nM	inactive	<17%	> 10000 nM	–	–	–
